Structures can show the parent of a compound that is named as a salt.
biological target: T1, human EP1 receptor (Homo sapiens, UniProt P34995); assay: human EP1 calcium mobilisation assay; assay type: cell-based; conditions: negative logarithm10 of the antagonist dissociation constant; CHO-K1 cells, PGE2; free bases or sodium salts; averages of a number of experiments; read-out: functional pKi value (converted)
T1 construct: expressed in transfected cells; host or cells: CHO-K1
T1 sequence (P34995 1-402): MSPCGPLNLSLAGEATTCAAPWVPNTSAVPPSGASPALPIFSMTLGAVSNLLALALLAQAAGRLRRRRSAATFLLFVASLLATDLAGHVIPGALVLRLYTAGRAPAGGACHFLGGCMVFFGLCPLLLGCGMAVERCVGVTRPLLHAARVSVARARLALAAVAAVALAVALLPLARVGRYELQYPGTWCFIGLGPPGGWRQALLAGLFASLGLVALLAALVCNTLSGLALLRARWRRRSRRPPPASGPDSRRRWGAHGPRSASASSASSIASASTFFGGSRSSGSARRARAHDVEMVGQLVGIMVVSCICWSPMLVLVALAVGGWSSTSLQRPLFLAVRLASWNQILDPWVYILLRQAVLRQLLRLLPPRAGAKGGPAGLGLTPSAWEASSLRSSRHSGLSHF
Experimental: Briefly, the antagonist properties of compounds are assessed by their ability to inhibit the mobilisation of intracellular calcium ([Ca^2+]i) in response to activation of EP1 or EP3 receptors by the natural agonist hormone prostaglandin E2 (PGE2). Increasing concentrations of antagonist reduce the amount of calcium that a given concentration of PGE2 can mobilise. The net effect is to displace the PGE2 concentration-effect curve to higher concentrations of PGE2. The amount of calcium produced is assessed using a calcium-sensitive fluorescent dye such as Fluo-4, AM and a suitable instrument such as a Fluorimetric Imaging Plate Reader (FLIPR). Increasing amounts of [Ca^2+]i produced by receptor activation increase the amount of fluorescence produced by the dye and give rise to an increasing signal. The signal may be detected using the FLIPR instrument and the data generated may be analysed with suitable curve-fitting software.
The human EP1 or EP3 calcium mobilisation assay (hereafter referred to as ‘the calcium assay’) utilises Chinese hamster ovary-K1 (CHO-K1) cells into which a stable (pCIN; BioTechniques 20 (1996): 102-110) vector containing either EP1 or EP3 cDNA has previously been transfected. Cells are cultured in suitable flasks containing culture medium such as DMEM:F-12 supplemented with 10% v/v foetal calf serum, 2 mM L-glutamine, 0.25 mg/ml geneticin, 100 μM flurbiprofen and 10 μg/ml puromycin.
For assay, cells are harvested using a proprietary reagent that dislodges cells such as Versene. Cells are re-suspended in a suitable quantity of fresh culture media for introduction into a 384-well plate. Following incubation for 24 hours at 37° C. the culture media is replaced with a medium containing Fluo-4 and the detergent pluronic acid, and a further incubation takes place. Concentrations of compounds are then added to the plate in order to construct concentration-effect curves. This may be performed on the FLIPR in order to assess the agonist properties of the compounds. Concentrations of PGE2 are then added to the plate in order to assess the antagonist properties of the compounds.
The data so generated may be analysed by means of a computerised curve-fitting routine. The concentration of compound that elicits a half-maximal inhibition of the calcium mobilisation induced by PGE2 (plC50) may then be estimated.

Structure (SMILES) | Ki [nM]
Cc1cc(NC(=O)c2cccnc2)nn1Cc1cc(Cl)ccc1OCc1ccccc1 [Example 145, N-[1-({5-Chloro-2-[(phenylmethyl)oxy]phenyl}methyl)-5-methyl-1H-pyrazol-3-yl]-3-pyridinecarboxamide] | > 1000
Cc1cc(C(=O)NC(C)C)nn1Cc1cc(Cl)ccc1OCc1ccccc1 [Example 290, 1-({5-Chloro-2-[(phenylmethyl)oxy]phenyl}methyl)-5-methyl-N-(1-methylethyl)-1H-pyrazole-3-carboxamide] | > 1000
Cc1cc(NC(=O)Cc2cccnc2)nn1Cc1cc(Cl)ccc1OCc1ccccc1 [Example 148, N-[1-({5-Chloro-2-[(phenylmethyl)oxy]phenyl}methyl)-5-methyl-1H-pyrazol-3-yl]-2-(3-pyridinyl)-acetamide] | > 1000
Cc1cc(NC(=O)c2ccco2)nn1Cc1cc(Cl)ccc1OCc1ccccc1 [Example 140, N-[1-({5-Chloro-2-[(phenylmethyl)oxy]phenyl}methyl)-5-methyl-1H-pyrazol-3-yl]-2-furancarboxamide] | > 1000
Cc1cc(NC(=O)Cc2ccccc2)nn1Cc1cc(Cl)ccc1OCc1ccccc1F [Example 120, N-{1-[(5-Chloro-2-{[(2-fluorophenyl)methyl]oxy}phenyl)methyl]-5-methyl-1H-pyrazol-3-yl}-2-phenylacetamide] | > 1000
Cc1cc(NC(=O)Cc2ccccc2)nn1Cc1cc(Cl)ccc1OCc1c(F)cc(F)cc1F [Example 127, N-{1-[(5-Chloro-2-{[(2,4,6-trifluorophenyl)methyl]oxy}phenyl)methyl]-5-methyl-1H-pyrazol-3-yl}-2-phenylacetamide] | > 1000
Cc1cc(C(=O)Nc2ccccc2)nn1Cc1cc(Cl)ccc1OCc1ccccc1 [Example 291, 1-({5-Chloro-2-[(phenylmethyl)oxy]phenyl}methyl)-5-methyl-N-phenyl-1H-pyrazol-3-carboxamide] | > 1000
CCOC(=O)Nc1cc(C)n(Cc2cc(Cl)ccc2OCc2ccccc2)n1 [Example 66, Ethyl [1-({5-chloro-2-[(phenylmethyl)oxy]phenyl}methyl)-5-methyl-1H-pyrazol-3-yl]carbamate] | > 1000
Cc1cc(OC(=O)NCc2ccc(CNC(=O)OC(C)(C)C)cc2)nn1Cc1cc(Cl)ccc1OCc1ccccc1 [Example 59, 1-({5-Chloro-2-[(phenylmethyl)oxy]phenyl}methyl)-5-methyl-1H-pyrazol-3-yl 1,1-dimethylethyl (benzene-1,4-dildimethanediyl)biscarbamate] | > 1000
Cc1cc(NC(=O)Cc2ccccc2)nn1Cc1cc(Cl)ccc1OCc1ccc(F)cc1 [Example 121, N-{1-[(5-Chloro-2-{[(4-fluorophenyl)methyl]oxy}phenyl)methyl]-5-methyl-1H-pyrazol-3-yl}-2-phenylacetamide] | > 1000
Cc1cc(N2CCN(Cc3ccc(Cl)cc3)CC2=O)nn1Cc1cc(Cl)ccc1OCC1CCCCO1 (stereo not drawn) [Example 284, 4-[(4-Chlorophenyl)methyl]-1-[1-({5-chloro-2-[(tetrahydro-2H-pyran-2-ylmethyl)oxy]phenyl}methyl)-5-methyl-1H-pyrazol-3-yl]-2-piperazinone] | > 1000
Cc1cc(NC(=O)Cc2ccccc2)nn1Cc1cc(Cl)ccc1OCc1ccc(F)c(F)c1F [Example 123, N-{1-[(5-Chloro-2-{[(2,3,4-trifluorophenyl)methyl]oxy}phenyl)methyl]-5-methyl-1H-pyrazol-3-yl}-2-phenylacetamide] | > 1000
Cc1cc(NC(=O)Cc2ccccc2)nn1Cc1cc(Cl)ccc1OCc1ccc(F)cc1Cl [Example 124, N-{1-[(5-Chloro-2-{[(2-chloro-4-fluorophenyl)methyl]oxy}phenyl)methyl]-5-methyl-1H-pyrazol-3-yl}-2-phenylacetamide] | > 1000
CNC(=O)c1cc(C)n(Cc2cc(Cl)ccc2OCc2ccccc2)n1 [Example 296, 1-({5-Chloro-2-[(phenylmethyl)oxy]phenyl}methyl)-N,5-dimethyl-1H-pyrazole-3-carboxamide] | > 1000
Cc1cc(NC(=O)Cc2ccccc2)nn1Cc1cc(Cl)ccc1OCc1ccc(F)cc1F [Example 122, N-{1-[(5-Chloro-2-{[(2,4-difluorophenyl)methyl]oxy}phenyl)methyl]-5-methyl-1H-pyrazol-3-yl}-2-phenylacetamide] | > 1000
Cc1cc(NC(=O)c2ccccn2)nn1Cc1cc(Cl)ccc1OCc1ccccc1 [Example 139, N-[1-({5-Chloro-2-[(phenylmethyl)oxy]phenyl}methyl)-5-methyl-1H-pyrazol-3-yl]-2-pyridinecarboxamide] | > 1000
Cc1cc(OC(=O)NCc2cccc(NC(=O)OC(C)(C)C)c2)nn1Cc1cc(Cl)ccc1OCc1ccccc1 [Example 60, 1-({5-Chloro-2-[(phenylmethyl)oxy]phenyl}methyl)-5-methyl-1H-pyrazol-3-yl {[3-({[(1,1-dimethylethyl)oxy]carbonyl}amino)phenyl]methyl}carbamate] | > 1000

Second part, the compound after the results:

Ki [nM] | Structure (SMILES)
> 1000 | Cc1cc(-c2cnc(-c3ccncc3)[nH]2)nn1Cc1cc(Cl)ccc1OCc1ccccc1 [Example 483, 4-{4-[1-({5-Chloro-2-[(phenylmethyl)oxy]phenyl}methyl)-5-methyl-1H-pyrazol-3-yl]-1H-imidazol-2-yl}pyridine hydrochloride]
> 1000 | CNCc1ccc(NC(=O)c2cc(C)n(Cc3cc(Cl)ccc3OCC(C)C)n2)c(OC)c1 [Example 412, 1-({5-Chloro-2-[(2-methylpropyl)oxy]phenyl}methyl)-5-methyl-N-[4-[(methylamino)methyl]-2-(methyloxy)phenyl]-1H-pyrazole-3-carboxamide hydrochloride]
> 1000 | Cc1cc(C(=O)Nc2ccccc2Cl)nn1Cc1cc(Cl)ccc1OCc1ccccc1 [Example 300, N-(2-Chlorophenyl)-1-({5-chloro-2-[(phenylmethyl)oxy]phenyl}methyl)-5-methyl-1H-pyrazole-3-carboxamide]
> 1000 | Cc1cc(-c2cnc(-c3cnccn3)[nH]2)nn1Cc1cc(Cl)ccc1OCc1ccccc1 [Example 482, 2-{4-[1-({5-chloro-2-[(phenylmethyl)oxy]phenyl}methyl)-5-methyl-1H-pyrazol-3-yl]-1H-imidazol-2-yl}pyrazine]
> 1000 | Cc1cc(NC(=O)c2ccc(CN3CCCCC3)c(F)c2)nn1Cc1cc(Cl)ccc1OCC(C)C [Example 436, N-[1-({5-chloro-2-[(2-methylpropyl)oxy]phenyl}methyl)-5-methyl-1H-pyrazol-3-yl]-3-fluoro-4-(1-piperidinylmethyl)benzamide hydrochloride]
> 1000 | Cc1cc(C(=O)Nc2ccc(C#N)cc2)nn1Cc1cc(Cl)ccc1OCc1ccccc1 [Example 306, 1-({5-Chloro-2-[(phenylmethyl)oxy]phenyl}methyl)-N-(4-cyanophenyl)-5-methyl-1H-pyrazole-3-carboxamide]
> 1000 | Cc1cc(S(=O)(=O)NC(=O)c2ccccc2)nn1Cc1cc(Cl)ccc1OCc1ccccc1 [Example 359, N-{[1-({5-Chloro-2-[(phenylmethyl)oxy]phenyl}methyl)-5-methyl-1H-pyrazol-3-yl]sulfonyl}benzamide]
> 1000 | Cc1cc(C(=O)NCc2ccccn2)nn1Cc1cc(Cl)ccc1OCc1ccc(Cl)cc1F [Example 340, 1-[(5-Chloro-2-{[(4-chloro-2-fluorophenyl)methyl]oxy}phe-nyl)methyl]-5-methyl-N-(2-pyridinylmethyl)-1H-pyrazole-3-carboxamide]
> 1000 | Cc1cc(-c2cnc(N3CCOCC3)[nH]2)nn1Cc1cc(Cl)ccc1OCc1ccccc1 [Example 485, 4-{4-[1-({5-Chloro-2-[(phenylmethyl)oxy]phenyl}methyl)-5-methyl-1H-pyrazol-3-yl]-1H-imidazol-2-yl}morpholine dihydrochloride]
> 1000 | Cc1cc(-c2nc3ccccc3[nH]2)nn1Cc1cc(Cl)ccc1OCc1ccccc1 [Example 385, 2-[1-({5-Chloro-2-[(phenylmethyl)oxy]phenyl}methyl)-5-methyl-1H-pyrazol-3-yl]-1H-benzimidazole]

Source: patent US20090239845A1, “PYRAZOLE COMPOUNDS AS PROSTAGLANDIN RECEPTORS LIGANDS” (priority 2005, published 2009)
